Like-named read-outs stand apart in the source and are kept apart here. Where no end group is shown, it is not given here.
Experiments:
A549 cancer cells = test: Cytotoxicity of 14α in presence or absence of antioxidants (ROS involvement); type: cell-based, human; conditions: A549, 48 h
Description: It is known that cancer cells have higher basal levels of reactive oxygen species (ROS) than normal cells, making them more sensitive to exogenous induction of ROS.[33] […] Therefore, we decided to study whether the generation of ROS was involved in the selective cytotoxic effect of 14α. A549 cancer cells were treated with 14α for 48 h in the presence or absence of three antioxidants: N-acetylcysteine (antioxidant activity through the glutathione system), catalase (hydrogen peroxide-degrading enzyme), and Mn(III) tetrakis(1-methyl-4-pyridyl)porphyrin pentachloride (MnTMPyP; superoxide anion scavenger).

A549 cells [1] = test: Glycolysis inhibition: glucose consumption and lactate production; type: cell-based, human; conditions: A549 cells exposed for 8 h
Description: Our next aim was to study the possible mechanisms involved in the selective anticancer activity of 14α. Because tumor cells rely on glycolysis for survival more than normal cells,[32] we evaluated if our compound behaved as a glycolysis inhibitor. Since glycolysis consumes glucose and produces lactate, we measured the concentrations of glucose and lactate in untreated A549 cells and in cells exposed for 8 h to 14α and to the known glycolysis inhibitor dichloroacetate.
Glycolysis inhibition was assessed by measuring concentrations of glucose ([…] of glycolysis) and lactate (final product of glycolysis) in control and treated cells. Briefly, 4 × 10^5 cells were seeded into 24-well plates. After 10 h, the medium of cells was renewed and drugs were added. Cells were exposed to the tested compounds for 8 h, and glucose and lactate concentrations were determined in cell supernatants using the Accutrend Plus analyzer together with Accutrend glucose strips and BM-Lactate strips (Roche Diagnostics). […] Results are expressed as a percentage of lactate production and percentage of glucose consumption in relation to untreated cells and are shown as the means ± SEM of two independent experiments.

[2] = tested on: A549 human lung cancer cells; test: MTT cytotoxicity assay, 48 h, A549 cells; type: cell-based; conditions: for IC50: read-out: IC50 (mean ± SEM) A549 (cancer)
From the text: (§1) First, we evaluated the cytotoxicity of our carbohydrate derivatives against MRC-5 human nonmalignant lung cells and A549 human lung cancer cells using the 3-(4,5-dimethylthiazol-2-yl)-2,5-diphenyltetrazolium bromide (MTT) assay under the same experimental conditions.
(§2) Cell viability was estimated with the 3-(4,5-dimethylthiazol-2-yl)-2,5-diphenyltetrazolium bromide (MTT) assay or the resazurin assay. Both assays are redox-based colorimetric techniques based on the capability of viable cells to reduce the yellow product MTT or the blue reagent resazurin into a purple formazan dye or a pink-colored product, respectively. The number of live cells is directly proportional to the amount of the final product created. Exponentially growing cells were seeded in 96-well plates and were allowed to grow during 24 h. The cells were then treated with several concentrations of the tested compounds for 48–96 h (the incubation periods are specified in the figures and table legends) before measuring the cell viability using the MTT assay or the resazurin assay.
(§3) Then, 80 μL of 20% sodium dodecyl sulfate (SDS) in 20 mM HCl was added to dissolve the insoluble purple formazan product and plates were incubated for 15 h at 37 °C. The optical density (OD) of each well was measured at 540 nm with a multiwell plate spectrophotometer reader to quantify cell survivals.
In both assays, results were expressed as the percentage of cell viability in relation to untreated cells (controls). All data were averaged from two to five independent experiments and were expressed as the means ± standard error of the mean (SEM). For statistical analysis, the t-test (paired, two-tailed) was used. A p value >0.05 is not considered statistically significant and is not represented by any symbol, a p value <0.05 is considered statistically significant and is indicated with an asterisk (*), a p value <0.01 is indicated with a double asterisk (**), and a p value <0.001 is indicated with a triple asterisk (***).

[3] = tested on: MRC-5 human nonmalignant lung cells; test: MTT cytotoxicity assay, 48 h, MRC-5 cells; type: cell-based
From the text: as §1
as §2, with “The cells were then treated with several concentrations of the tested compounds for 48–96 h (the incubation periods are specified in the figures and table legends) before measuring the cell viability using the MTT assay or the resazurin assay.” left out
as §3
In both assays, results were expressed as the percentage of cell viability in relation to untreated cells (controls). All data were averaged from two to five independent experiments and were expressed as the means ± standard error of the mean (SEM). […]

GAMG (glioblastoma) = test: Resazurin cell viability assay, 96 h, GAMG; type: cell-based, human
From the text: (§4) Cell viability was estimated with the resazurin assay. HaCaT human skin nonmalignant cells were used to study selectivity; these cells are derived from normal adult tissue and have a division rate similar to that of cancer cells.
as §2
(§5) The OD of each well was measured at 540 and 620 nm on a multiwell plate spectrophotometer reader.

HNO97 (tongue cancer) = test: Resazurin cell viability assay, 96 h, HNO97; type: cell-based, human
From the text: as §4, §2, §5

PC-3 (prostate cancer) = test: Resazurin cell viability assay, 96 h, PC-3; type: cell-based, human
From the text: as §4, §2, §5

MeWo (melanoma; BRAF WT) = test: Resazurin cell viability assay, 96 h, MeWo; type: cell-based, human
From the text: as §4, §2, §5

[4] = tested on: Sk-Br-3 (HER2-positive breast cancer); test: Resazurin cell viability assay, 96 h, Sk-Br-3; type: cell-based, human
From the text: as §4, §2, §5

[5] = tested on: A64-CLS (submaxillary gland adenoma); test: Resazurin cell viability assay, 96 h, A64-CLS; type: cell-based, human
From the text: as §4, §2, §5

HepG2 (hepatocarcinoma) = test: Resazurin cell viability assay, 96 h, HepG2; type: cell-based, human
From the text: as §4, §2, §5

Sk-OV-3 (ovarian cancer) = test: Resazurin cell viability assay, 96 h, Sk-OV-3; type: cell-based, human; conditions: IC50 HaCaT / IC50 Sk-OV-3
From the text: as §4, §2, §5

[6] = tested on: KATO III (gastric cancer); test: Resazurin cell viability assay, 96 h, KATO III; type: cell-based, human
From the text: as §4, §2, §5

HT29 (colorectal cancer) = test: Resazurin cell viability assay, 96 h, HT29; type: cell-based, human
From the text: as §4, §2, §5

T24 (bladder cancer) = test: Resazurin cell viability assay, 96 h, T24; type: cell-based, human
From the text: as §4, §2, §5

[7] = tested on: AN3Ca (endometrial adenocarcinoma); test: Resazurin cell viability assay, 96 h, AN3Ca; type: cell-based, human
From the text: as §4, §2, §5

[8] = tested on: HaCaT (human skin normal); test: Resazurin cell viability assay, 96 h, HaCaT; type: cell-based; conditions: read-out: IC50 (mean ± SEM) HaCaT
Description: Thirteen human cancer cells lines and one human nonmalignant cell line were treated with 14α for 96 h. We used longer exposure times because some of these cell lines have long cell cycles (24–48 h); this longer exposure time allows the cells to pass several cycles in the presence of 14α. Cell viability was estimated with the resazurin assay. HaCaT human skin nonmalignant cells were used to study selectivity; these cells are derived from normal adult tissue and have a division rate similar to that of cancer cells. One key limitation of most anticancer drugs is that, in addition to targeting cancer cells, they also target nonmalignant cells with similar division rates. […] These cell lines were at least 3 times more sensitive than the normal cell line to 14α treatment. HepG2 (hepatocarcinoma) and KATO III (gastric cancer) were at least 9-fold more vulnerable to 14α than HaCaT nonmalignant cells.
Cell viability was estimated with the 3-(4,5-dimethylthiazol-2-yl)-2,5-diphenyltetrazolium bromide (MTT) assay or the resazurin assay. […]
For the resazurin assay, after treatment, the medium was removed and 150 μL of resazurin solution (20 μg/mL in medium) was added to each well for 3–6 h. The OD of each well was measured at 540 and 620 nm on a multiwell plate spectrophotometer reader.

[9] = tested on: MDA-MB-231 (triple-negative breast cancer); test: Resazurin cell viability assay, 96 h, MDA-MB-231; type: cell-based, human; conditions: IC50 HaCaT / IC50 MDA-MB-231
From the text: as §4, §2, §5

A549 cells [10] = test: Cell proliferation after SP, Resazurin assay, 48 h; type: cell-based, human; conditions: SP 2.5 - 200 nM
Description: Competition Experiments of Cytotoxic effect of in presence of SP. 14α
First, we treated A549 cells with several concentrations of SP (2.5 - 200 nM) for 48 h and we evaluated cell proliferation with the Resazurin assay. Although it has been reported that A549 […]
of SP. The highest SP concentration tested (200 nM) was added 1 h before 32 µM of 14α or Cisplatin. After a 48 h treatment period, the cell viability was determined with the Resazurin […]
Figure S-4. Evaluation of cytotoxic activity of 14α derivative and Cisplatin on A549 lung cancer cells and HaCaT normal cells in presence of SP. Results are representative of at least three independent experiments. Values are expressed in mean with SEM.
1 O'Connor, T.M.; O'Connell, J.; O'Brien, D.I.; Bennett, M.W.; Goode, T.; Burke, L.; Bredin, C.P.; Shanahan,
(1 picture or pasted object on this page, not shown here)

C[C@@H](O[C@H]1O[C@@H]2CO[C@@H](c3ccccc3)O[C@@H]2[C@H](O)[C@H]1OCc1ccc(F)cc1)c1cc(C(F)(F)F)cc(C(F)(F)F)c1 [14α, (R)-{1-[3,5-Bis-(trifluoromethyl)phenyl]ethyl} (R)-(4,6-O-Benzylidene)-2-O-p-fluorobenzyl-α-D-galactopyranoside]
effect of antioxidants (N-acetylcysteine, catalase, MnTMPyP) on cytotoxicity (A549 cancer cells): None of these three antioxidants reduced the cytotoxicity | glucose consumption and lactate production (glycolysis inhibition) (A549 cells [1]): did not reduce glucose consumption or lactate production

C[C@@H](O[C@H]1OCCN(Cc2n[nH]c(=O)[nH]2)[C@H]1c1ccc(F)cc1)c1cc(C(F)(F)F)cc(C(F)(F)F)c1 [Aprepitant]
IC50 ([2]; Homo sapiens, A549, MTT assay): 18.3 ± 3.4 µM | IC50 ([3]; Homo sapiens, MRC5, read-out: IC50 (mean ± SEM) MRC-5 (normal)): 28.9 ± 6.8 µM

N.N.[Cl][Pt][Cl] [Cisplatin]
selectivity index (vs HaCaT; mean ± SEM) GAMG (GAMG (glioblastoma); IC50 HaCaT / IC50 GAMG, Resazurin): 0.7 ± 0.0 | IC50 (GAMG (glioblastoma); Resazurin assay, read-out: IC50 (mean ± SEM) GAMG): 3.2 ± 0.9 µM | selectivity index (vs HaCaT; mean ± SEM) HNO97 (HNO97 (tongue cancer); IC50 HaCaT / IC50 HNO97, Resazurin): 0.8 ± 0.1 | IC50 (HNO97 (tongue cancer); Resazurin assay, read-out: IC50 (mean ± SEM) HNO97): 2.5 ± 0.4 µM | selectivity index (vs HaCaT; mean ± SEM) PC-3 (PC-3 (prostate cancer); IC50 HaCaT / IC50 PC-3, Resazurin): 0.7 ± 0.2 | IC50 (PC-3 (prostate cancer); Resazurin assay, read-out: IC50 (mean ± SEM) PC-3): 3.1 ± 0.2 µM | IC50 ([2]; MTT assay): 13.5 ± 2.7 µM | selectivity index (IC50 MRC-5 / IC50 A549) ([2]; mean of indices of each individual experiment, MTT): 8.6 ± 3.9 | selectivity index (vs HaCaT; mean ± SEM) MeWo (MeWo (melanoma; BRAF WT); IC50 HaCaT / IC50 MeWo, Resazurin): 1.0 ± 0.1 | IC50 (MeWo (melanoma; BRAF WT); Resazurin assay, read-out: IC50 (mean ± SEM) MeWo): 2.2 ± 1.1 µM | selectivity index (vs HaCaT; mean ± SEM) Sk-Br-3 ([4]; IC50 HaCaT / IC50 Sk-Br-3, Resazurin): 0.5 ± 0.1 | IC50 ([4]; Resazurin assay, read-out: IC50 (mean ± SEM) Sk-Br-3): 4.3 ± 0.9 µM | selectivity index (vs HaCaT; mean ± SEM) A64-CLS ([5]; IC50 HaCaT / IC50 A64-CLS, Resazurin): 0.5 ± 0.0 | IC50 ([5]; Resazurin assay, read-out: IC50 (mean ± SEM) A64-CLS): 4.5 ± 1.2 µM | selectivity index (vs HaCaT; mean ± SEM) HepG2 (HepG2 (hepatocarcinoma); IC50 HaCaT / IC50 HepG2, Resazurin): 1.2 ± 0.2 | IC50 (HepG2 (hepatocarcinoma); Resazurin assay, read-out: IC50 (mean ± SEM) HepG2): 1.8 ± 0.2 µM | selectivity index (vs HaCaT; mean ± SEM) Sk-OV-3 (Sk-OV-3 (ovarian cancer)): 0.5 ± 0.2 | selectivity index (vs HaCaT; mean ± SEM) KATO III ([6]; IC50 HaCaT / IC50 KATO III, Resazurin): 1.2 ± 0.5 | IC50 ([6]; Resazurin assay, read-out: IC50 (mean ± SEM) KATO III): 1.8 ± 0.2 µM | selectivity index (vs HaCaT; mean ± SEM) HT29 (HT29 (colorectal cancer); IC50 HaCaT / IC50 HT29, Resazurin): 0.4 ± 0.1 | IC50 (HT29 (colorectal cancer); Resazurin assay, read-out: IC50 (mean ± SEM) HT29): 4.9 ± 0.8 µM | selectivity index (vs HaCaT; mean ± SEM) T24 (T24 (bladder cancer); IC50 HaCaT / IC50 T24, Resazurin): 1.3 ± 0.0 | IC50 (T24 (bladder cancer); Resazurin assay, read-out: IC50 (mean ± SEM) T24): 1.6 ± 0.5 µM | selectivity index (vs HaCaT; mean ± SEM) AN3Ca ([7]; IC50 HaCaT / IC50 AN3Ca, Resazurin): 2.1 ± 1.2 | IC50 ([7]; Resazurin assay, read-out: IC50 (mean ± SEM) AN3Ca): 1.8 ± 1.4 µM | IC50 [8]: 2.1 ± 0.7 µM | IC50 ([3]; read-out: IC50 (mean ± SEM) MRC-5 (normal)): 99.2 ± 37 µM | selectivity index (vs HaCaT; mean ± SEM) MDA-MB-231 [9]: 0.3 ± 0.1

substance P (RPKPQQFFGLM-NH2; ends and bridges not checked; also: 125I label, position not given here) [SP]
cell proliferation after addition of SP (A549 cells [10]): did not observe any increase in cell proliferation

— paper PMC8529873, “Carbohydrate-Based NK1R Antagonists with Broad-Spectrum Anticancer Activity” (Journal of Medicinal Chemistry, 2021)
